Earlier results as cited in US12721837B2, “Stable pharmaceutical compositions of clonidine” (AZURITY PHARMACEUTICALS, INC., priority 2021, dated 2026).

Columns and labels:
[1] = after oral administration

SMILES: Clc1cccc(Cl)c1N=C1NCCN1 [Clonidine, N-(2,6-dichlorophenyl)-4,5-dihydro-1H-imidazol-2-amine]
- Solubility in water: freely soluble
- Absorption from the gastrointestinal tract [1]: almost completely absorbed
